Measured values as given in PubChem BioAssay AID248 (DTP/NCI, 2004).
Values joined by “and” are separate entries in the source; they are usually repeats but may differ in a detail not shown here. Equal entries are not always repeated. Inconclusive results and toxic doses are left out.

Tested on: L1210 leukemia ip in BDF1 mice, survival T/C
Test: NCI In Vivo Anticancer Drug Screen. Data for tumor model L1210 Leukemia (intraperitoneal) in B6D2F1 (BDF1) mice
Conditions: endpoint: mean survival time, higher = longer survival
Summary of the method: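 Tumor cells were implanted, animals were treated, and survival was followed. The result divides the treated measurement by the vehicle-control measurement.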

[1] = dose: 100.0 mg/kg/injection, schedule: Q01DX001 (ip), vehicle: Klucel (hydroxypropylcellulose) (HPC)
[2] = dose: 200.0 mg/kg/injection, schedule: Q01DX001 (ip), vehicle: Klucel (hydroxypropylcellulose) (HPC)
[3] = dose: 400.0 mg/kg/injection, schedule: Q01DX001 (ip), vehicle: Klucel (hydroxypropylcellulose) (HPC)
[4] = dose: 100.0 mg/kg/injection, schedule: Q01DX001 (ip), vehicle: saline
[5] = dose: 100.0 mg/kg/injection, schedule: Q01DX009 (ip), vehicle: saline with Tween-80
[6] = dose: 200.0 mg/kg/injection, schedule: Q01DX009 (ip), vehicle: saline with Tween-80
[7] = dose: 50.0 mg/kg/injection, schedule: Q01DX009 (ip), vehicle: saline with Tween-80
[8] = dose: 100.0 mg/kg/injection, schedule: Q04DX003 (ip), vehicle: Klucel (hydroxypropylcellulose) (HPC)
[9] = dose: 200.0 mg/kg/injection, schedule: Q04DX003 (ip), vehicle: Klucel (hydroxypropylcellulose) (HPC)
[10] = dose: 400.0 mg/kg/injection, schedule: Q04DX003 (ip), vehicle: Klucel (hydroxypropylcellulose) (HPC)
[11] = dose: 100.0 mg/kg/injection, schedule: Q04DX003 (ip), vehicle: saline
[12] = dose: 200.0 mg/kg/injection, schedule: Q04DX003 (ip), vehicle: saline
[13] = dose: 400.0 mg/kg/injection, schedule: Q04DX003 (ip), vehicle: saline
[14] = dose: 25.0 mg/kg/injection, schedule: Q01DX001 (ip), vehicle: saline
[15] = dose: 50.0 mg/kg/injection, schedule: Q01DX001 (ip), vehicle: saline

In the case of `CC(=O)N1CCN(C(C)=O)C1=S`, the T/C [1] is reported as 96 % of control, the T/C [2] is reported as 95 % of control and the T/C [3] is reported as 98 % of control.

For `NNC(=O)COc1ccccc1`, the T/C [4] was 106 % of control.

In the case of `Cc1cc(C)c(NC(=O)N(CCCl)N=O)c(C)c1`, the T/C (dose: 11.25 mg/kg/injection, schedule: Q01DX001 (ip), vehicle: other) is reported as 155 % of control, the T/C (dose: 15.0 mg/kg/injection, schedule: Q01DX001 (ip), vehicle: other) is reported as 150 % of control and the T/C (dose: 16.0 mg/kg/injection, schedule: Q01DX001 (ip), vehicle: other) is reported as 174 % of control. The T/C (dose: 20.0 mg/kg/injection, schedule: Q01DX001 (ip), vehicle: other) was 203 % of control, the T/C (dose: 22.5 mg/kg/injection, schedule: Q01DX001 (ip), vehicle: other) was 234 % of control and the T/C (dose: 25.0 mg/kg/injection, schedule: Q01DX001 (ip), vehicle: other) was 166 % of control. The T/C (dose: 30.0 mg/kg/injection, schedule: Q01DX001 (ip), vehicle: other) was 191 % of control, the T/C (dose: 31.0 mg/kg/injection, schedule: Q01DX001 (ip), vehicle: other) was 165 % of control and the T/C (dose: 38.0 mg/kg/injection, schedule: Q01DX001 (ip), vehicle: other) was 201 % of control. The T/C (dose: 45.0 mg/kg/injection, schedule: Q01DX001 (ip), vehicle: other) was 252 % of control and 322 % of control, the T/C (dose: 57.0 mg/kg/injection, schedule: Q01DX001 (ip), vehicle: other) was 262 % of control and the T/C (dose: 62.0 mg/kg/injection, schedule: Q01DX001 (ip), vehicle: other) was 217 % of control. The T/C (dose: 86.0 mg/kg/injection, schedule: Q01DX001 (ip), vehicle: other) was 227 % of control and the T/C (dose: 90.0 mg/kg/injection, schedule: Q01DX001 (ip), vehicle: other) was 100 % of control.

In the case of `Cc1nc2c(N)nn(C)c2nc1C`, the T/C [5] is reported as 96 % of control and the T/C [6] is reported as 102 % of control.

`CN(C(=O)N(CCCl)N=O)C1CCC(C(=O)O)CC1` (stereo not given) was tested, and the T/C (dose: 12.0 mg/kg/injection, schedule: Q01DX009 (ip), vehicle: alkali diluted with saline) was 95 % of control, the T/C (dose: 18.0 mg/kg/injection, schedule: Q01DX009 (ip), vehicle: alkali diluted with saline) was 103 % of control and the T/C (dose: 24.0 mg/kg/injection, schedule: Q01DX001 (ip), vehicle: saline + Tween-80 + alkali) was 93 % of control. For the same compound, the T/C (dose: 26.0 mg/kg/injection, schedule: Q01DX009 (ip), vehicle: alkali diluted with saline) was 103 % of control, the T/C (dose: 36.0 mg/kg/injection, schedule: Q01DX001 (ip), vehicle: saline + Tween-80 + alkali) was 98 % of control and the T/C (dose: 40.0 mg/kg/injection, schedule: Q01DX009 (ip), vehicle: alkali diluted with saline) was 111 % of control. The T/C (dose: 54.0 mg/kg/injection, schedule: Q01DX001 (ip), vehicle: saline + Tween-80 + alkali) was 98 % of control, the T/C (dose: 60.0 mg/kg/injection, schedule: Q01DX009 (ip), vehicle: alkali diluted with saline) was 119 % of control and the T/C (dose: 80.0 mg/kg/injection, schedule: Q01DX001 (ip), vehicle: saline + Tween-80 + alkali) was 104 % of control. The T/C (dose: 120.0 mg/kg/injection, schedule: Q01DX001 (ip), vehicle: saline + Tween-80 + alkali) was 113 % of control, the T/C (dose: 180.0 mg/kg/injection, schedule: Q01DX001 (ip), vehicle: saline + Tween-80 + alkali) was 121 % of control and the T/C (dose: 400.0 mg/kg/injection, schedule: Q01DX001 (ip), vehicle: saline + Tween-80 + alkali) was 180 % of control.

With `CCC(=O)C(CCN1CCC(n2c(=O)[nH]c3ccccc32)CC1)(c1ccccc1)c1ccccc1` the T/C (dose: 0.2 mg/kg/injection, schedule: Q01DX009 (ip), vehicle: saline with Tween-80) was 90 % of control, the T/C (dose: 0.4 mg/kg/injection, schedule: Q01DX009 (ip), vehicle: saline with Tween-80) was 89 % of control and the T/C (dose: 0.78 mg/kg/injection, schedule: Q01DX009 (ip), vehicle: saline with Tween-80) was 88 % of control. The T/C (dose: 0.8 mg/kg/injection, schedule: Q01DX009 (ip), vehicle: saline with Tween-80) was 104 % of control, the T/C (dose: 3.13 mg/kg/injection, schedule: Q01DX009 (ip), vehicle: saline with Tween-80) was 98 % of control and the T/C (dose: 6.25 mg/kg/injection, schedule: Q01DX009 (ip), vehicle: saline with Tween-80) was 93 % of control and 89 % of control. For the same compound, the T/C (dose: 12.5 mg/kg/injection, schedule: Q01DX009 (ip), vehicle: saline with Tween-80) was 95 % of control, the T/C (dose: 25.0 mg/kg/injection, schedule: Q01DX009 (ip), vehicle: saline with Tween-80) was 90 % of control and the T/C [7] was 86 % of control. The T/C [5] was 96 % of control and 92 % of control.

For `CCO/C=C(\C#N)C(=O)O`, the T/C [5] was 95 % of control, the T/C (dose: 100.0 mg/kg/injection, schedule: Q04DX003 (ip), vehicle: saline with Tween-80) was 98 % of control and the T/C [6] was 98 % of control. For the same compound, the T/C (dose: 200.0 mg/kg/injection, schedule: Q04DX003 (ip), vehicle: saline with Tween-80) was 104 % of control, the T/C (dose: 400.0 mg/kg/injection, schedule: Q01DX009 (ip), vehicle: saline with Tween-80) was 102 % of control and the T/C (dose: 400.0 mg/kg/injection, schedule: Q04DX003 (ip), vehicle: saline with Tween-80) was 100 % of control.

`CSC(=Nc1ccccc1)N(C)c1ccccc1` was tested, and the T/C [8] was 90 % of control, the T/C [9] was 86 % of control and the T/C [10] was 88 % of control.

With `O=c1cc(CN(CCO)CCO)[nH]c(=O)[nH]1` the T/C [11] was 93 % of control, the T/C [12] was 95 % of control and the T/C [13] was 93 % of control.

`CCCCCCCCCCCCCCCCCCNc1nc(SC)ncc1C(=O)OCC` was tested, and the T/C [14] was 103 % of control, the T/C [15] was 102 % of control and the T/C [4] was 101 % of control and 102 % of control.

With `CCCCC(=O)N/N=C/c1ccc(Cl)c([N+](=O)[O-])c1` the T/C [4] was 91 % of control, the T/C (dose: 200.0 mg/kg/injection, schedule: Q01DX001 (ip), vehicle: saline) was 89 % of control and the T/C (dose: 400.0 mg/kg/injection, schedule: Q01DX001 (ip), vehicle: saline) was 91 % of control.

`Nc1nnc(N)c2nc(-c3ccccc3)c(-c3ccccc3)nc12` was tested, and the T/C (dose: 100.0 mg/kg/injection, schedule: Q01DX009 (ip), vehicle: Klucel (hydroxypropylcellulose) (HPC)) was 101 % of control and the T/C (dose: 200.0 mg/kg/injection, schedule: Q01DX009 (ip), vehicle: Klucel (hydroxypropylcellulose) (HPC)) was 101 % of control.

For `CC(C)(CO)CCl`, the T/C [7] was 91 % of control, the T/C [5] was 95 % of control and the T/C [6] was 88 % of control.

In the case of `CN1C(=O)CC(c2ccc(N3C(=O)C=CC3=O)cc2)C1=O` (stereo not given), the T/C (dose: 25.0 mg/kg/injection, schedule: Q04DX002 (ip), vehicle: saline with Tween-80) is reported as 102 % of control.

`OC(C1COC(CBr)O1)C(O)C1COC(CBr)O1` (stereo not given) was tested, and the T/C (dose: 100.0 mg/kg/injection, schedule: Q04DX002 (ip), vehicle: Klucel (hydroxypropylcellulose) (HPC)) was 117 % of control and 113 % of control, the T/C (dose: 200.0 mg/kg/injection, schedule: Q04DX002 (ip), vehicle: Klucel (hydroxypropylcellulose) (HPC)) was 98 % of control and 103 % of control and the T/C (dose: 400.0 mg/kg/injection, schedule: Q04DX002 (ip), vehicle: Klucel (hydroxypropylcellulose) (HPC)) was 95 % of control.

With `O=C(COc1ccccc1)Oc1c(Cl)c(Cl)c(Cl)c(Cl)c1Cl` the T/C [1] was 96 % of control, the T/C [8] was 103 % of control and the T/C [2] was 92 % of control. The T/C [9] was 103 % of control, the T/C [3] was 98 % of control and the T/C [10] was 95 % of control.

For `CCOC1NC(C)(C)CO1` (stereo not given), the T/C (dose: 100.0 mg/kg/injection, schedule: Q01DX009 (ip), vehicle: saline) was 101 % of control, the T/C [11] was 115 % of control and the T/C (dose: 200.0 mg/kg/injection, schedule: Q01DX009 (ip), vehicle: saline) was 101 % of control. For the same compound, the T/C [12] was 97 % of control, the T/C (dose: 400.0 mg/kg/injection, schedule: Q01DX009 (ip), vehicle: saline) was 97 % of control and the T/C [13] was 121 % of control.

With `Cc1ccccc1N1CCN(CCO)CC1` the T/C (dose: 12.5 mg/kg/injection, schedule: Q01DX001 (ip), vehicle: saline) was 105 % of control, the T/C (dose: 12.5 mg/kg/injection, schedule: Q04DX003 (ip), vehicle: saline) was 100 % of control and the T/C [14] was 105 % of control. For the same compound, the T/C (dose: 25.0 mg/kg/injection, schedule: Q04DX003 (ip), vehicle: saline) was 110 % of control, the T/C [15] was 100 % of control and the T/C (dose: 50.0 mg/kg/injection, schedule: Q04DX003 (ip), vehicle: saline) was 110 % of control.

For `CCOC(=O)c1cc(=O)c2c(ccc3ccccc32)[nH]1`, the T/C [8] was 94 % of control and the T/C [9] was 93 % of control.

In the case of `CCCC(CCC)NCCOC(=O)C(CC)c1ccccc1` (stereo not given), the T/C (dose: 75.0 mg/kg/injection, schedule: Q01DX001 (ip), vehicle: saline) is reported as 94 % of control.
